Results as given in patent publication US20220241240A1, “AGENTS AND METHODS FOR INCREASING STEM CELL FUNCTION” (priority 2019, published 2022).

Columns and labels:
[1] = system: bone marrow derived mouse HSCs (mHSCs); assay: Mitochondrial membrane potential (TMRM) and mitochondrial mass (Mitotracker) in cultured mHSCs, flow cytometry; assay type: cell-based
Procedure: We first tested the effect of UroA on bone marrow derived mouse HSCs (mHSCs) (FIG. 1A). Freshly isolated mHSCs (LKS CD150+CD48-) were cultured in basal media (Stemline+SCF+FLT3L+Penicillin/Streptomycin) supplemented with different concentrations of UroA. Cells were harvested at day 3 and stained with tetramethylrhodamine methyl ester (TMRM; to measure mitochondria membrane potential) and Mitotracker (to measure mitochondrial mass), and analysed by flow cytometry.
Flow cytometry analysis was performed on freshly isolated bone marrow (BM) from C571316 mice. BM was extracted from crushed femora and tibia. Cell suspension was filtered through a 70 μm cell strainer and erythroid cells were eliminated by incubation with red blood cell lysis buffer (eBioscences). Isolation and stains were performed in ice-cold PBS 1 mM EDTA. Lineage positive cells were then removed with a magnetic lineage depletion kit (BD biosciences). Cell suspensions were then stained with specific antibodies for the stem cell compartment and sorted by FACS (BD FACS Aria 111) into 1.5 ml Eppendorf tubes.
(§1) Murine HSCs were sorted into 1.5 ml Eppendorf tubes and were cultured in Stemline II (SIGMA) supplemented with 100 ng/ml SCF (R&D) and 2 ng/ml Flt3 (R&D). Different concentrations as indicated of UroA (dissolved in DMSO) were added; an equal amount of DMSO was added to the control well.
Mouse HSCs already in culture were incubated at 37° C. for 1 hour with 200 nM tetramethylrhodamine methyl ester (TMRM; Invitrogen) and 100 nM Mitotracker green. Cells were then washed with FACS buffer and analysed by flow cytometry on a BD LSR II.

[2] = system: human cord blood derived hematopoietic stem and progenitor cells (hHSPCs); assay: Mitochondrial membrane potential (TMRM) in cultured hHSPCs (CD34+), flow cytometry; assay type: cell-based; conditions: days 3, 5 and 7, increasing doses of UroA
Description: We then looked at the effect of UroA on human cord blood derived hematopoietic stem and progenitor cells (hHSPCs) (FIG. 1B). Cryopreserved hHSPCs (CD34+) were thawed and cultured in basal media (Stemspan+SCF+FLT3L+TPO+LDLP+Penicillin/Streptomycin) supplemented with different concentrations of UroA. Aliquots of cells were harvested at days 3, 5 and 7, followed by staining for CD34 and TMRM, and analysed by flow cytometry.
Cryopreserved CD34+ cells isolated from foetal liver/cord blood were thawed and cultured in vitro in StemSpan (Stem cell tech) media supplemented with hSCF (100 ng/ml), hFLT3L (100 ng/ml), hTPO (50 ng/ml), hLDLP (10 μg/ml) and different concentrations of UroA (dissolved in DMSO) were added; an equal amount of DMSO was added to the control well. For longer culture periods half of the media was replenished every 2nd or 3rd day.
Human HSCs already in culture were incubated at 37° C. for 1 hour with 200 nM TMRM (Invitrogen). Cells were then washed with FACS buffer, followed by staining with CD34 antibody for 1 hour at 4° C. Cells were washed with FACS buffer and analysed by flow cytometry on a BD LSR II.

mHSCs [3] = assay: In vivo reconstitution by UroA-cultured mHSCs in lethally irradiated recipient mice; design: species or system mouse; conditions: mHSCs cultured 3 days with 20 μM UroA, injected into lethally irradiated mice
Procedure: Having previously shown that lowering mitochondrial membrane potential enhances HSC function (Vannini, N. et al. (2016) Nat Commun 7: 13125), we asked if UroA treatment improves in vivo reconstitution potential of HSCs. To that end, we cultured freshly isolated mHSCs in basal media without or with UroA (20 μM). At the end of the culture period (3 days) cells were counted and injected into lethally irradiated recipient mice (FIG. 2A).
as §1
C57131/6 Ly5.2 mice were lethally irradiated with a total 8 Gy dose in a gamma radiator 24 h before transplant. Mice were injected with 200 donor cells post culture derived from C57131/6 Ly5.1 mice and 200,000 competitor cells derived from C57131/6 Ly5.1/5.2 mice, via tail-vein injection. Peripheral blood was collected every few weeks to determine the percentage of chimerism by FACS analysis.

[4] = system: cord blood derived human HSPCs; assay: Colony Forming Unit (CFU) assay in methylcellulose; assay type: cell-based; conditions: hHSPCs cultured 7 days with 50 μM UroA; colonies counted 15 days post plating; versus control
Procedure: Next, we cultured cord blood derived human HSPCs without or with UroA (50 μM) and performed two functional assays: Colony Forming Unit (CFU) assay—7 days post culture and in vivo transplantation assay in new born NSG-SGM3 pups—5 days post culture (FIG. 2B). […] Cryopreserved CD34+ cells isolated from foetal liver/cord blood were thawed and cultured in vitro in StemSpan (Stem cell tech) media supplemented with hSCF (100 ng/ml), hFLT3L (100 ng/ml), hTPO (50 ng/ml), hLDLP (10 μg/ml) and different concentrations of UroA (dissolved in DMSO) were added; an equal amount of DMSO was added to the control well. For longer culture periods half of the media was replenished every 2nd or 3rd day. CFU assays were carried out using H4434 (Stem cell tech) as per the manufacturer's instructions. 1000 cells from each well were plated in duplicate. Colonies were counted 15 days post plating using Stem Vision (Stem cell tech).

[5] = system: cord blood derived human HSPCs; assay: In vivo transplantation assay of UroA-cultured hHSPCs in new born NSG-SGM3 pups; conditions: hHSPCs cultured 5 days with 50 μM UroA
Procedure: Next, we cultured cord blood derived human HSPCs without or with UroA (50 μM) and performed two functional assays: Colony Forming Unit (CFU) assay—7 days post culture and in vivo transplantation assay in new born NSG-SGM3 pups—5 days post culture (FIG. 2B). […] Cryopreserved CD34+ cells isolated from foetal liver/cord blood were thawed and cultured in vitro in StemSpan (Stem cell tech) media supplemented with hSCF (100 ng/ml), hFLT3L (100 ng/ml), hTPO (50 ng/ml), hLDLP (10 μg/ml) and different concentrations of UroA (dissolved in DMSO) were added; an equal amount of DMSO was added to the control well. For longer culture periods half of the media was replenished every 2nd or 3rd day. NSG mice were purchased from Jackson Laboratory, bred and maintained under pathogen-free conditions in-house. For transplantation, one day old NSG pups were irradiated with 1 Gy (RS-2000, RAD SOURCE) and a few hours later injected intrahepatically with in vitro expanded HSCs. Each pup was injected with a cell mass derived from an initial 50,000 CD34+ cells post in vitro culture. Mice were bled at 12 weeks to estimate human reconstitution levels (% human CD45+ cells) in the peripheral blood. Antibody combinations were used to further estimate human B cells, T cells, monocytes, neutrophils and NK cells.

mHSCs [6] = assay: QPCR gene expression analysis on cultured mHSCs; assay type: cell-based, mouse; conditions: mHSCs cultured with 20 μM UroA versus without
Procedure: To have analyse the molecular mechanisms by which UroA enhances HSC function, we performed gene expression analysis on mHSCs cultured in basal media with or without UroA (20 μM).
RNA was extracted from HSCs post culture using ZR RNA MicroPrep (Zymo Research) and RNA extraction was performed accordingly to the manufacturer's instructions. RNA was retrotranscribed to cDNA with 1st strand cDNA kit (TAKARA) as per the manufacturer's instructions.
For qPCR, 0.5 μl of cDNA, 5 μl of Power Syber Green mastermix (Applied Biosystem) and 500 nM of primers were used to a final volume of 10 μl for each reaction. The reactions were performed on the 7900HT system (Applied Biosystem).

[7] = system: Human Cord-blood derived HSCPs; assay: Limiting transplantation experiment: survival of irradiated adult NSG mice given UroA-cultured HSPCs; assay type: in vivo; conditions: HSPCs cultured three days with 50 μM UroA, 40,000 cells per irradiated adult NSG mouse; followed eight months; especially early post-transplant phases
Procedure: A) Human cord blood derived HSPCs were cultured in basal media with or without 50 μM UroA. Three days post culture cells were counted and limiting dose (40,000 cells) was injected in each irradiated recipient adult NSG mouse and survival was monitored over several months.
In order to check if a short in vitro treatment with UroA could improve the survival of irradiated recipients post transplantation we designed a limiting transplantation experiment. Human Cord-blood derived HSCPs were cultured for three days in the absence or presence of UroA. Post culture cells were counted and 40,000 cells were injected in each recipient mouse (irradiated NSG adult mice). We followed these mice for several months to check for post transplantation survival.

human HSCs = conditions: culture media supplemented with nicotinamide riboside; cited from earlier work

| Structure (SMILES) | proportion of cells in the TMRM low gate ([1]; mHSCs (LKS CD150+CD48-), day 3 of culture, increasing doses of UroA) | mitochondrial mass (Mitotracker staining) ([1]; mHSCs, day 3, 20 μM UroA) | mitochondrial mass (Mitotracker staining) ([1]; mHSCs, day 3, all concentrations of UroA) | TMRM fluorescent intensity (Mean Fluorescence Intensity, MFI) ([1]; mHSCs, day 3 of culture, increasing doses of UroA) | TMRM signal (Median Fluorescence Intensity, MFI) [2] | proportions of cells in the TMRM low gate [2] | reconstitution in myeloid and lymphoid lineages of the blood (mHSCs [3]) | blood reconstitution levels of recipients (mHSCs [3]; versus cells cultured without UroA) | numbers of colonies (CFU assay) [4] | human cell numbers in blood cell lineages ([5]; NSG-SGM3 mice, primarily lymphoid lineage (T and B cells)) | human engraftment (proportion and absolute numbers) in blood ([5]; transplanted in irradiated NSG-SGM3 pups) | expression of ROS protection genes (Foxo1, SOD2), fold change (delta delta CT) (mHSCs [6]) | expression of autophagy genes (ATGS, PARK2), fold change (delta delta CT) (mHSCs [6]) | expression of glycolysis genes (HK2, Glut1), fold change (delta delta CT) (mHSCs [6]) | post transplantation survival of recipient mice [7] | levels of engraftment in primary and secondary recipient humanised mice (human HSCs) |
| --- | --- | --- | --- | --- | --- | --- | --- | --- | --- | --- | --- | --- | --- | --- | --- | --- |
| O=c1oc2cc(O)ccc2c2ccc(O)cc12 [UroA, 3,8-dihydroxyurolithin] | step-wise increase | significant reduction | decrease in the mitochondrial mass | significant lowering | concomitant decrease of TMRM signal | increasing proportions of cells in the TMRM^low gate | This trend was reflected in both the myeloid and lymphoid lineages | higher reconstitution levels | significantly higher numbers of colonies | higher human cell numbers | increased human engraftment | increased expression | increased expression | increased expression | significant improvement in survival |  |
| NC(=O)c1ccc[n+]([C@@H]2O[C@H](CO)[C@@H](O)[C@H]2O)c1 [nicotinamide riboside] |  |  |  |  |  |  |  |  |  |  |  |  |  |  |  | significantly higher levels of engraftment |
